{
  "source": "ChEMBL document CHEMBL3872207",
  "about": "“Aromatic heterocyclic esters of podophyllotoxin exert anti-MDR activity in human leukemia K562/ADR cells via ROS/MAPK signaling pathways” (Eur J Med Chem, 2016)",
  "key": {"K562/Adr [1]": {"tested_on": "K562/Adr", "experiment": "Induction of apoptosis in human K562/ADR cells assessed as ratio of cleaved caspase-3 to beta-actin level at 0.1 uM pretreated with ROS scavenger NAC for 2 hrs followed by compound addition measured after 48 hrs by Western blot analysis (reference value: 0.06)", "assay_type": "functional"}, "K562/Adr [2]": {"tested_on": "K562/Adr", "experiment": "Induction of ERK1/2 phosphorylation in human K562/ADR cells assessed as ratio of phosphorylated ERK1/2 to beta-actin level at 0.1 uM pretreated with MAPK inhibitor SP600125 for 1 hr followed by compound addition after 48 hrs by Western blotting method (reference value: 0.22)", "assay_type": "cell-based"}, "[3]": {"target": "T1, MAP kinase p38 (Homo sapiens) (UniProt O15264+Q15759+Q16539+P53778)", "experiment": "Induction of P38 phosphorylation in human K562/ADR cells assessed as ratio of phosphorylated p38 to beta-actin level at 0.1 uM measured after 48 hrs by Western blotting method (reference value: 0.25)", "assay_type": "cell-based"}, "K562/Adr [4]": {"tested_on": "K562/Adr", "experiment": "Induction of apoptosis in human K562/ADR cells assessed as early apoptotic cells at 0.1 uM pretreated with ROS scavenger NAC for 2 hrs followed by compound addition after 48 hrs by Annexin V-APC/7-AAD staining based flow cytometry (reference value: 2.74%)", "assay_type": "functional"}, "K562/Adr [5]": {"tested_on": "K562/Adr", "experiment": "Induction of apoptosis in human K562/ADR cells assessed as early apoptotic cells at 0.1 uM pretreated with MAPK inhibitor SP600125 for 1 hr followed by compound addition after 48 hrs by Annexin V-APC/7-AAD staining based flow cytometry (reference value: 2.74%)", "assay_type": "functional", "design": "scale not given: the % may be the effect or the level left"}, "K562/Adr [6]": {"tested_on": "K562/Adr", "experiment": "Induction of apoptosis in human K562/ADR cells assessed as chromatin condensation at 0.1 uM measured after 24 hrs by Hoechst33342 staining-based inverted fluorescent microscopic analysis", "assay_type": "functional, cell-based"}, "K562/Adr [7]": {"tested_on": "K562/Adr", "experiment": "Induction of apoptosis in human K562/ADR cells assessed as late apoptotic cells at 0.1 uM pretreated with MAPK inhibitor U0126 for 1 hr followed by compound addition after 48 hrs by Annexin V-APC/7-AAD staining based flow cytometry (reference value: 1.69%)", "assay_type": "functional", "design": "scale not given: the % may be the effect or the level left"}, "K562/Adr [8]": {"tested_on": "K562/Adr", "experiment": "Induction of apoptosis in human K562/ADR cells assessed as ratio of cleaved caspase-3 to beta-actin level at 0.1 uM pretreated with MAPK inhibitor SP600125 for 1 hr followed by compound addition measured after 48 hrs by Western blot analysis (reference value: 0.06)", "assay_type": "functional"}, "[9]": {"target": "T1, MAP kinase p38 (Homo sapiens)", "experiment": "Induction of P38 phosphorylation in human K562/ADR cells assessed as ratio of phosphorylated p38 to beta-actin level at 0.1 uM pretreated with MAPK inhibitor SB203580 for 1 hr followed by compound addition after 48 hrs by Western blotting method (reference value: 0.25)", "assay_type": "cell-based"}, "K562/Adr [10]": {"tested_on": "K562/Adr", "experiment": "Induction of apoptosis in human K562/ADR cells assessed as viable cells at 0.1 uM pretreated with MAPK inhibitor SB203580 for 1 hr followed by compound addition after 48 hrs by Annexin V-APC/7-AAD staining based flow cytometry (reference value: 95.31%)", "assay_type": "functional", "settings": "read-out: Activity"}, "K562/Adr [11]": {"tested_on": "K562/Adr", "experiment": "Induction of apoptosis in human K562/ADR cells assessed as necrotic cells at 0.1 uM pretreated with MAPK inhibitor SB203580 for 1 hr followed by compound addition after 48 hrs by Annexin V-APC/7-AAD staining based flow cytometry (reference value: 0.26%)", "assay_type": "functional", "design": "scale not given: the % may be the effect or the level left"}, "K562/Adr [12]": {"tested_on": "K562/Adr", "experiment": "Induction of apoptosis in human K562/ADR cells assessed as ratio of cleaved caspase-9 to beta-actin level at 0.1 uM measured after 48 hrs by Western blot analysis (reference value: 0.05)", "assay_type": "functional"}, "[13]": {"target": "c-Jun N-terminal kinase, JNK (Homo sapiens) (UniProt P45983+P53779+P45984)", "experiment": "Induction of JNK phosphorylation in human K562/ADR cells assessed as ratio of phosphorylated JNK to beta-actin level at 0.1 uM pretreated with MAPK inhibitor SB203580 for 1 hr followed by compound addition after 48 hrs by Western blotting method (reference value: 0.46)", "assay_type": "cell-based"}, "K562/Adr [14]": {"tested_on": "K562/Adr", "experiment": "Induction of apoptosis in human K562/ADR cells assessed as viable cells at 0.1 uM pretreated with MAPK inhibitor SP600125 for 1 hr followed by compound addition after 48 hrs by Annexin V-APC/7-AAD staining based flow cytometry (reference value: 95.31%)", "assay_type": "functional", "settings": "read-out: Activity"}, "[15]": {"experiment": "Downregulation of CDK1 expression in human K562/ADR cells assessed as ratio of CDK1 to beta-actin level at 0.1 uM pretreated with MAPK inhibitor SB203580 for 1 hr followed by compound addition measured after 48 hrs by Western blot analysis (reference value: 0.53)", "assay_type": "functional, cell-based"}},
  "note": "Activity calls are given as the source filed them. No cut-off for these calls is given here.",
  "data": [
    {"smiles": "COc1cc([C@@H]2c3cc4c(cc3[C@H](OC(=O)c3ccco3)[C@H]3COC(=O)[C@H]23)OCO4)cc(OC)c1OC", "values": [
      {"measurement": "Ratio", "setting": "K562/Adr [1]", "value": 0.2},
      {"measurement": "Ratio", "setting": "K562/Adr [2]", "value": 0.06},
      {"measurement": "Ratio", "setting": "[3]", "value": 0.46},
      {"measurement": "Activity", "setting": "K562/Adr [4]", "value": 8.06, "unit": "%"},
      {"measurement": "Activity", "setting": "K562/Adr [5]", "value": 7.8, "unit": "%"},
      {"measurement": "Activity", "setting": "K562/Adr [6]", "value": "Active"},
      {"measurement": "Activity", "setting": "K562/Adr [7]", "value": 31.44, "unit": "%"},
      {"measurement": "Ratio", "setting": "K562/Adr [8]", "value": 0.51},
      {"measurement": "Ratio", "setting": "[9]", "value": 0.02},
      {"measurement": "viability at 0.1 µM", "setting": "K562/Adr [10]", "value": 59.4, "unit": "%"},
      {"measurement": "Activity", "setting": "K562/Adr [11]", "value": 2.86, "unit": "%"},
      {"measurement": "Ratio", "setting": "K562/Adr [12]", "value": 0.69},
      {"measurement": "Ratio", "setting": "[13]", "value": 0.3},
      {"measurement": "viability at 0.1 µM", "setting": "K562/Adr [14]", "value": 58.5, "unit": "%"},
      {"measurement": "Ratio", "setting": "[15]", "value": 0.2}
    ]}
  ]
}
